Results: US9776999B2, “Antiparisitic dihydroazole compounds and compositions comprising same” (MERIAL, INC., priority 2009, dated 2017)

System: Ctenocephalides felis
Assay: Contact activity of compounds against fleas (Method B)
Details: adult fleas, treated filter paper; 72 hours assessment; test concentration of 100 ppm or less; versus untreated controls
Method: METHOD B: Screening Method to test Contact Activity of Compounds Against Fleas
A solution of the test compound was dispensed, using a pipette, onto filter paper placed into a glass vial. The filter paper was allowed to dry before infesting each vial with 10 adult Ctenocephalides felis. The treated Ctenocephalides felis were held in a controlled environment (24° C., 90-95% relative humidity) and assessment was performed at 24, 48 and 72 hours after application in comparison with untreated controls.

CSCCNC(=O)c1ccc(C2=NOC(c3cc(C(F)(F)F)cc(C(F)(F)F)c3)(C(F)(F)F)C2)n2cccc12 (stereo not shown) [Compound 1.009, 5-[5-(3,5-Bistrifluoromethylphenyl)-5-trifluoromethyl-4,5-dihydroisoxazol-3-yl]-indolizine-8-carboxylic acid (2-methylthioethyl)-amide]
control (Ctenocephalides felis, contact): at least 80%
